# The Kinase Knowledgebase extract (Sharma et al. 2016)
# Experiments:
# PIK3CA (human) = PIK3CA (human) (UniProt P42336); experiment: Assessment of PIK3CA Kinase Activity
# PIK3CD (Human) = PIK3CD (Human) (UniProt O00329); experiment: Assessment of PIK3CD Kinase Activity
# PIK3CD (Human), sequence (O00329 whole entry, looked up): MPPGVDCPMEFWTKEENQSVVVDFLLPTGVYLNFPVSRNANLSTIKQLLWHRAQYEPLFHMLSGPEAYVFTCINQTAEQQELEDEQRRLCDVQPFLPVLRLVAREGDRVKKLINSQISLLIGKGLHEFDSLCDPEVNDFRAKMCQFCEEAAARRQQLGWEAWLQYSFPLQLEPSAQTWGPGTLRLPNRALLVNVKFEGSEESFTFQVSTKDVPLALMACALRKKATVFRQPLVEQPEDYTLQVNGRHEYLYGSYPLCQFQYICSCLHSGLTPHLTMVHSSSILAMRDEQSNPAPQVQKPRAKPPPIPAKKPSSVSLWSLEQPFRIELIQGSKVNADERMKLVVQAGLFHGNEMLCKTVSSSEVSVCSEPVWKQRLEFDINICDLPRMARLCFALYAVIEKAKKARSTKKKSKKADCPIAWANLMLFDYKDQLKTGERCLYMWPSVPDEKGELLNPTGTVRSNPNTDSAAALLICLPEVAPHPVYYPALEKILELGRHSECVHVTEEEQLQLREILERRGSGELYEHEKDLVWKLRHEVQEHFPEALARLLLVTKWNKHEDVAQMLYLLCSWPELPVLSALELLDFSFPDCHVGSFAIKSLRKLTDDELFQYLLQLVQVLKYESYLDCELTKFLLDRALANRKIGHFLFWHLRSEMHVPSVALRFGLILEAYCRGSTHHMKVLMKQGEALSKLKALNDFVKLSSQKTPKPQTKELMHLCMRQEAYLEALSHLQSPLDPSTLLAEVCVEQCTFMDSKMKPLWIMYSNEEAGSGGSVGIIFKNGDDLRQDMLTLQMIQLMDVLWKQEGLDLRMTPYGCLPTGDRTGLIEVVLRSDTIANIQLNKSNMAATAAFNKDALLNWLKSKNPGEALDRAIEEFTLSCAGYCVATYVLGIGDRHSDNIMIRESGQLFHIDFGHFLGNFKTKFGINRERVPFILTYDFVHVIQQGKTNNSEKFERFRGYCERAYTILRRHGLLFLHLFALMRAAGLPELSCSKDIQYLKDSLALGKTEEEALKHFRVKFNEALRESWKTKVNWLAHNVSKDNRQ
# PIK3CA (human), sequence (P42336 whole entry, looked up): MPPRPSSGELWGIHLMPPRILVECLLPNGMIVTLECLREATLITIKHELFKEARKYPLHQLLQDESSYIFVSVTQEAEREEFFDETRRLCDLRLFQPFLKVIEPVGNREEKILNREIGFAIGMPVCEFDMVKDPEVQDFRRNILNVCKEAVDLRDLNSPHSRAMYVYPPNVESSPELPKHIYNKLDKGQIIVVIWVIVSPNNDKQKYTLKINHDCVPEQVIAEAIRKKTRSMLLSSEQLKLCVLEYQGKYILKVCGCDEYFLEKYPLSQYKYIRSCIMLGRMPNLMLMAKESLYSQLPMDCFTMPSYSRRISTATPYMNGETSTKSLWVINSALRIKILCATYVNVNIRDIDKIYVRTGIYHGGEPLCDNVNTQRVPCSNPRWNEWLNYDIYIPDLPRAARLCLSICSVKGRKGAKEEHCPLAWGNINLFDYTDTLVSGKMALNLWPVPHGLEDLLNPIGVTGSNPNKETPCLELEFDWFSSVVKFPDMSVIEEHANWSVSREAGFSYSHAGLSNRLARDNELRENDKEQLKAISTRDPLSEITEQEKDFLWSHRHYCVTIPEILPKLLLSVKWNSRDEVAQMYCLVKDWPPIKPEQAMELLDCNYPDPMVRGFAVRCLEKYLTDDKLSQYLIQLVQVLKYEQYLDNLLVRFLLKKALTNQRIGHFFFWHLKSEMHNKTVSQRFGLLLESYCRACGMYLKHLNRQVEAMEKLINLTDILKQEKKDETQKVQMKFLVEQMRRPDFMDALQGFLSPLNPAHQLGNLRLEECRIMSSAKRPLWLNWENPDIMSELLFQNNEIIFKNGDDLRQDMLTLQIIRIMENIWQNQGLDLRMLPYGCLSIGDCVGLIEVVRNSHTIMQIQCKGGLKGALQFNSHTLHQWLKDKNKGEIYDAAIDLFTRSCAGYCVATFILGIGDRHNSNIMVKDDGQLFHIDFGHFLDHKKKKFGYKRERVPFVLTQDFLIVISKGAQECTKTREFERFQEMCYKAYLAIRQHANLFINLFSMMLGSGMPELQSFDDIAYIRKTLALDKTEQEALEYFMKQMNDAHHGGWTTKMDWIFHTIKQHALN
IC50 (PIK3CA (human)) [nM],IC50 (PIK3CD (Human)) [nM],Structure (SMILES)
472,,Cn1c(CN2CC(C3CCOCC3)C2)nc2c(N3CCOCC3)nc(-n3c(C4CC4)nc4ccccc43)nc21
104,1.08,CCc1nc2ccccc2n1-c1nc(N2CCOCC2)c2nc(CC3CN(C(C)(C)C(N)=O)C3)n(C)c2n1
52.2,,Cc1c(CN2CCN(C(C)(C)C(N)=O)CC2)sc2c(N3CCOCC3)nc(-c3cncc4[nH]ccc34)nc12
41.6,,CC(C)(C(N)=O)N1CCN(Cc2nc3c(N4CCOCC4)nc(-c4cncc5[nH]ccc45)nc3s2)CC1
485,,CCc1nc2ccccc2n1-c1nc(N2CCOCC2)c2nc(CCN3CCOCC3(C)C)n(C)c2n1
82.5,,CCc1nc2ccccc2n1-c1nc(N2CCOCC2)c2nc(CC3CN(C4CCS(=O)(=O)CC4)C3)n(C)c2n1
245,,Cn1c(CN2CCC(C(C)(C)O)CC2)nc2c(N3CCOCC3)nc(-c3cnc(N)c4ccccc34)nc21
1200,,COC(C)(C)C1CCN(Cc2nc3c(N4CCOCC4)nc(-c4c(C)oc5ccccc45)nc3n2C)CC1
83,0.61,CCc1nc2ccccc2n1-c1nc(N2CCOCC2)c2nc(C(=O)C3CCN(C(C)(C)C(=O)OC)CC3)n(C)c2n1
215,,CCc1nc2ccccc2n1-c1nc(N2CCOCC2)c2nc(CN3CCN(C(C)(C)CO)CC3)[nH]c2n1
175,,Cc1nc2ccccc2n1-c1nc(N2CCOCC2)c2oc(CN3CCN(C(C)(C)C(N)=O)CC3)cc2n1
132,,CCc1nc2ccccc2n1-c1nc(N2CCOCC2)c2nc(CC(=O)N3CCC(C(C)(C)O)CC3)sc2n1
207,,CN(C)C1CCN(Cc2cc3nc(-n4ccc5cnccc54)nc(N4CCOCC4)c3s2)CC1
593,,CN(C)C1CCN(Cc2cc3nc(-c4ccc(O)c5nccn45)nc(N4CCOCC4)c3s2)CC1
729,,COc1cccc(-c2nc3c(N4CCOCC4)nc(-n4c(C(C)C)nc5ccccc54)nc3n2C)c1
264,,CC(C)c1nc2ccccc2n1-c1nc(N2CCOCC2)c2nc(CN3CCN(C(C)(C)CO)CC3)[nH]c2n1
1500,,CC(C)(C(N)=O)N1CCN(Cc2nc3nc(-c4cccc5nccn45)nc(N4CCOCC4)c3s2)CC1
190,,CC(C)c1nc2ccccc2n1-c1nc(N2CCOCC2)c2nc(-c3cccnc3)n(C)c2n1
5350,,c1cc(-c2nc(N3CCOCC3)c3sc(CN4CCC(N5CCOCC5)CC4)cc3n2)c2ccncc2c1
2790,,Cn1c(CN2CCC(C(C)(C)O)CC2)nc2c(N3CCOCC3)nc(-c3n[nH]c4ccccc34)nc21
218,,CCc1nc2ccccc2n1-c1nc(N2CCOCC2)c2nc(CN3C[C@@H]4C[C@H]3CN4C(C)(C)CO)n(C)c2n1
